# Legend:
# hNav1.7 = hNav1.7 (Homo sapiens (Human), UniProt Q15858); assay: Electrophysiological evaluation, automated patch clamp IonWorks Quattro, hNav 1.7/β1/β2 HEK293A cells; format: cell-based; details: response caused by the second depolarization pulse (pre-pulse potential set to V1/2); HEK293A hNav 1.7/β1/β2 cells; Population Patch Clamp
# [1] = test system: patients of painful diabetic neuropathy; details: cited from earlier work
# Sequence of hNav1.7 (Q15858 whole entry): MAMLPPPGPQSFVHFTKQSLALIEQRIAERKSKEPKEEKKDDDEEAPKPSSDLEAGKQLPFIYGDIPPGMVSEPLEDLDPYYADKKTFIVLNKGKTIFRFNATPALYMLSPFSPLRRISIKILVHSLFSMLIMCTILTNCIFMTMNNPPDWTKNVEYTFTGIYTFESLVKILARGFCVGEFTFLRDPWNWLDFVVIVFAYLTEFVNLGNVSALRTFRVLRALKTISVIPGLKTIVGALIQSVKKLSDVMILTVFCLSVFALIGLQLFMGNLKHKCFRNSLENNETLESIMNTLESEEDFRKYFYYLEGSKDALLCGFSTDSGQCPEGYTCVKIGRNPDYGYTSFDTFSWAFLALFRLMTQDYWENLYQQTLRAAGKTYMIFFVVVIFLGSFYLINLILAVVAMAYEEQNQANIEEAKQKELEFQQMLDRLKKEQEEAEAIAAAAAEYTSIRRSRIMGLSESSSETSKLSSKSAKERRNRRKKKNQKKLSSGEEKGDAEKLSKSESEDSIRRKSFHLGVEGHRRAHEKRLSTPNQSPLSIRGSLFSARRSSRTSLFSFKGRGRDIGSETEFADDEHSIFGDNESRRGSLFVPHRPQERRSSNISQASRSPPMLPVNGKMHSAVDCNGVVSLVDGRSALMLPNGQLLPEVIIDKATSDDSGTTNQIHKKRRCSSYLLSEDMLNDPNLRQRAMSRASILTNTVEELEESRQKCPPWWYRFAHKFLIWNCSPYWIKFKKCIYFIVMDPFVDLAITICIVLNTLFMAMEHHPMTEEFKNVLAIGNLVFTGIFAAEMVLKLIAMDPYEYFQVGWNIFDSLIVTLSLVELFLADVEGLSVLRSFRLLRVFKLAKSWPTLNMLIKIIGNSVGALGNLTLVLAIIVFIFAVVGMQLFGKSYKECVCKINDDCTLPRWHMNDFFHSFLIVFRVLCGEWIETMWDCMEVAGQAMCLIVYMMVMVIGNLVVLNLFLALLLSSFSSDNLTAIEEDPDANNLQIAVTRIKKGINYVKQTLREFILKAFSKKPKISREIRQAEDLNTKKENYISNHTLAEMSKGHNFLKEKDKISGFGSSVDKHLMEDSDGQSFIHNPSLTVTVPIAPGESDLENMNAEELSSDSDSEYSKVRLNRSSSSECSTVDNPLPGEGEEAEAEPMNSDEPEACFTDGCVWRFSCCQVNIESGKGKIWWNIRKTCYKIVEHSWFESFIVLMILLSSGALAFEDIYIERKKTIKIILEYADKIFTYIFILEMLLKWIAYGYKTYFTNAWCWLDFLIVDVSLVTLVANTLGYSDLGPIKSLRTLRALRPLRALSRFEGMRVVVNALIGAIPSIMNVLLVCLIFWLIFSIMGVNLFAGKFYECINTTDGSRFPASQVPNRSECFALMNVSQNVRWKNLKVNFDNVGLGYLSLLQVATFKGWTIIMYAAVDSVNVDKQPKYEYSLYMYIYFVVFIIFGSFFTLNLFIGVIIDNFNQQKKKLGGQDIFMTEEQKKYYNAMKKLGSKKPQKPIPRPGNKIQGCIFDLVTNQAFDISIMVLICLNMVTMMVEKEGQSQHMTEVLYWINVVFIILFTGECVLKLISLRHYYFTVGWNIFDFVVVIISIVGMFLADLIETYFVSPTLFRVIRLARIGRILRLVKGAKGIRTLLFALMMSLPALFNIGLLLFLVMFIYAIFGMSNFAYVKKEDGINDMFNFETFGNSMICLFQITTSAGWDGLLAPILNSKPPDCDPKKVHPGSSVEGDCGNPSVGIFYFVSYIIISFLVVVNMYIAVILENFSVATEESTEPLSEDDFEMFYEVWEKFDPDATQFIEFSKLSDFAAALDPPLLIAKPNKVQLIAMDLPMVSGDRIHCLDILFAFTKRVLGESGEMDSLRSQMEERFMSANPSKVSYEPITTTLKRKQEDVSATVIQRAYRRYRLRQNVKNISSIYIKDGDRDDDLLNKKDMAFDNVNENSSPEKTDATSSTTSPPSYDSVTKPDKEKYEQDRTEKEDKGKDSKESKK
# Sequence of hNav1.7 (Q07699 19-218 partner): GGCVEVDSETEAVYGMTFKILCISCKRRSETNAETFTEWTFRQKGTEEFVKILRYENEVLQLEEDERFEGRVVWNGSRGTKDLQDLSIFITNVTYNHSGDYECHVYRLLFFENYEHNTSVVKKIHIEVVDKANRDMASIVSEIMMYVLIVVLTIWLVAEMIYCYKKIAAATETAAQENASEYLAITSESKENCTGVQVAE
# Sequence of hNav1.7 (O60939 30-215 partner): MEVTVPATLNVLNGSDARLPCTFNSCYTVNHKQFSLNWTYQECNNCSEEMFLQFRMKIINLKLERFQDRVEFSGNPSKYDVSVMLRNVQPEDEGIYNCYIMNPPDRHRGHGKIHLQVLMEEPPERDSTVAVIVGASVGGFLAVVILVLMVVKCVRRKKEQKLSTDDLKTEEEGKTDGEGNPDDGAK
SMILES,IC50 (hNav1.7),effective therapeutic ratio based on self-evaluation of patients [1]
"O=S(=O)(Nc1ncns1)c1cc(F)c(O[C@@H]2CCCC[C@@H]2c2ccccc2)cc1F (relative stereo) [Example 3, 2,5-Difluoro-4-{[(1R*,2R*)-2-phenylcyclohexyl]oxy}-N-(1,2,4-thiadiazol-5-yl)benzenesulfonamide]",270 nM,
CC(C)C[C@H](CN)CC(=O)O [pregabalin],,approximately 50%

# From patent US9845313B2, “Cycloalkane derivatives” (Daiichi Sankyo Company, Limited, priority 2012, dated 2017)
